Source: patent US11890288B2, “Sulfonamide or sulfinamide compound having effect of inducing BRD4 protein degradation and pharmaceutical use thereof” (MITSUBISHI TANABE PHARMA CORPORATION, priority 2020, dated 2024)

Assays:
[1] = tested on: human prostate cancer LNCaP cells; assay: Cytotoxic action on LNCaP cells (WST-8, 96 hr); assay type: cell-based; conditions: 96 hr culture
How it was run: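 WST-8 viable-cell readout after 96 hr compound exposure in 10% FBS/RPMI1640, 37° C, 5% CO2; cells pre-cultured overnight before dosing. Survival normalised to compound-free control (100%); IC50 by straight-line interpolation between the two concentrations flanking 50% survival.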

BRD4 protein = BRD4 protein (Homo sapiens (Human), UniProt O60885); assay: BRD4 protein degradation inducing action in LNCaP cells (immunofluorescence, 6 hr); assay type: cell-based; conditions: anti-BRD4 fluorescence intensity
How it was run: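 Read-out is BRD4 immunofluorescence intensity (560/572 nm) after 6 hr compound treatment of LNCaP cells in 10% FBS/RPMI1640, with fixation, permeabilization and anti-BRD4 staining. Linear interpolation between the two concentrations flanking 50% of untreated intensity gives DC50.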

Row | SMILES | DC50 (BRD4 protein) | IC50 [1]
1 | CCc1ccc(NS(=O)(=O)c2ccc([C@@H](C)NC(=O)c3ccc(-c4ccc(C5=N[C@@H](CC(=O)OC)c6nnc(C)n6-c6sc(C)c(C)c65)cc4)cc3C)cc2)c2[nH]cc(C#N)c12 [Example Compound 123, methyl [(6S)-4-(4′-{[(1R)-1-{4-[(3-cyano-4-ethyl-1H-indol-7-yl)sulfamoyl]phenyl}ethyl]carbamoyl}-3′-methyl[1,1′-biphenyl]-4-yl)-2,3,9-trimethyl-6H-thieno[3,2-f][1,2,4]triazolo[4,3-a][1,4]diazepin-6-yl]acetate] | 0.21 nM | 0.32 nM
2 | CCc1ccc(NS(=O)(=O)c2ccc(CCNC(=O)c3ccc(-c4ccc(C5=N[C@@H](CC(=O)OC)c6nnc(C)n6-c6sc(C)c(C)c65)cc4)c(F)c3)cc2)c2[nH]cc(C#N)c12 [Example Compound 124, methyl [(6S)-4-{4′-[(2-{4-[(3-cyano-4-ethyl-1H-indol-7-yl)sulfamoyl]phenyl}ethyl)carbamoyl]-2′-fluoro[1,1′-biphenyl]-4-yl}-2,3,9-trimethyl-6H-thieno[3,2-f][1,2,4]triazolo[4,3-a][1,4]diazepin-6-yl]acetate] | 0.095 nM | 0.27 nM
3 | CCc1ccc(NS(=O)(=O)c2ccc(CCNC(=O)c3ccc(-c4ccc(C5=N[C@@H](CC(=O)OC)c6nnc(C)n6-c6sc(C)c(C)c65)cc4)c(F)c3F)cc2)c2[nH]cc(C#N)c12 [Example Compound 125, methyl [(6S)-4-{4′-[(2-{4-[(3-cyano-4-ethyl-1H-indol-7-yl)sulfamoyl]phenyl}ethyl)carbamoyl]-2′,3′-difluoro[1,1′-biphenyl]-4-yl}-2,3,9-trimethyl-6H-thieno[3,2-f][1,2,4]triazolo[4,3-a][1,4]diazepin-6-yl]acetate] | 0.17 nM | 0.37 nM
4 | CCc1ccc(NS(=O)(=O)c2ccc([C@@H](C)NC(=O)c3ccc(-c4ccc(C5=N[C@@H](CC(=O)OC)c6nnc(C)n6-c6sc(C)c(C)c65)cc4)cc3)cc2)c2[nH]cc(C#N)c12 [Example Compound 127, methyl [(6S)-4-(4′-{[(1R)-1-{4-[(3-cyano-4-ethyl-1H-indol-7-yl)sulfamoyl]phenyl}ethyl]carbamoyl}[1,1′-biphenyl]-4-yl)-2,3,9-trimethyl-6H-thieno[3,2-f][1,2,4]triazolo[4,3-a][1,4]diazepin-6-yl]acetate] | 0.024 nM | 0.032 nM
5 | COc1ccc2c(c1)C(c1ccc(-c3ccc(C(=O)NCc4ccc(S(=O)(=O)Nc5ccc(C)c6c(C#N)c[nH]c56)cc4)cc3)cc1)=N[C@@H](CC(=O)OC(C)(C)C)c1nnc(C)n1-2 [Example Compound 132, t-butyl [(4S)-6-{4′-[({4-[(3-cyano-4-methyl-1H-indol-7-yl)sulfamoyl]phenyl}methyl)carbamoyl][1,1′-biphenyl]-4-yl}-8-methoxy-1-methyl-4H-[1,2,4]triazolo[4,3-a][1,4]benzodiazepin-4-yl]acetate] | 0.13 nM | 0.21 nM
6 | COC(=O)C[C@@H]1N=C(c2ccc(-c3ccc(C(=O)NCc4ccc(S(=O)(=O)Nc5ccc(C)c6c(C#N)c[nH]c56)cc4)cc3)cc2)c2cc(OC)ccc2-n2c(C)nnc21 [Example Compound 133, methyl [(4S)-6-{4′-[({4-[(3-cyano-4-methyl-1H-indol-7-yl)sulfamoyl]phenyl}methyl)carbamoyl][1,1′-biphenyl]-4-yl}-8-methoxy-1-methyl-4H-[1,2,4]triazolo[4,3-a][1,4]benzodiazepin-4-yl]acetate] | 0.34 nM | 0.49 nM
7 | Cc1sc2c(c1C)C(c1ccc(-c3ccc(C(=O)N[C@H](C)c4ccc(S(=O)(=O)Nc5ccc(C)c6c(C#N)c[nH]c56)cc4)cc3)cc1)=N[C@@H](CC(=O)OC(C)(C)C)c1nnc(C)n1-2 [Example Compound 134, t-butyl [(6S)-4-(4′-{[(1R)-1-{4-[(3-cyano-4-methyl-1H-indol-7-yl)sulfamoyl]phenyl}ethyl]carbamoyl}[1,1′-biphenyl]-4-yl)-2,3,9-trimethyl-6H-thieno[3,2-f][1,2,4]triazolo[4,3-a][1,4]diazepin-6-yl]acetate] | 0.31 nM | 0.55 nM
8 | Cc1sc2c(c1C)C(c1ccc(-c3ccc(C(=O)NCc4ccc(S(=O)(=O)Nc5ccc(C)c6c(C#N)c[nH]c56)cc4)c(F)c3F)cc1)=N[C@@H](CC(=O)OC(C)(C)C)c1nnc(C)n1-2 [Example Compound 138, t-butyl [(6S)-4-{4′-[({4-[(3-cyano-4-methyl-1H-indol-7-yl)sulfamoyl]phenyl}methyl)carbamoyl]-2′,3′-difluoro[1,1′-biphenyl]-4-yl}-2,3,9-trimethyl-6H-thieno[3,2-f][1,2,4]triazolo[4,3-a][1,4]diazepin-6-yl]acetate] | 0.32 nM | 0.77 nM
9 | Cc1sc2c(c1C)C(c1ccc(-c3ccc(C(=O)NCc4ccc(S(=O)(=O)Nc5ccc(C)c6c(C#N)c[nH]c56)cc4)c(F)c3)cc1)=N[C@@H](CC(=O)OC(C)(C)C)c1nnc(C)n1-2 [Example Compound 139, t-butyl [(6S)-4-{4′-[({4-[(3-cyano-4-methyl-1H-indol-7-yl)sulfamoyl]phenyl}methyl)carbamoyl]-3′-fluoro[1,1′-biphenyl]-4-yl}-2,3,9-trimethyl-6H-thieno[3,2-f][1,2,4]triazolo[4,3-a][1,4]diazepin-6-yl]acetate] | 0.25 nM | 0.45 nM

Continued, in another order:

Row | DC50 (BRD4 protein) | SMILES | IC50 [1]
10 | 0.039 nM | CCc1ccc(NS(=O)(=O)c2ccc(CCNC(=O)c3ccc(-c4ccc(C5=N[C@@H](CC(=O)OC)c6nnc(C)n6-c6sc(C)c(C)c65)cc4)cc3)cc2)c2[nH]cc(C#N)c12 [Example Compound 128, methyl [(6S)-4-{4′-[(2-{4-[(3-cyano-4-ethyl-1H-indol-7-yl)sulfamoyl]phenyl}ethyl)carbamoyl][1,1′-biphenyl]-4-yl}-2,3,9-trimethyl-6H-thieno[3,2-f][1,2,4]triazolo[4,3-a][1,4]diazepin-6-yl]acetate] | 0.074 nM
11 | 0.033 nM | CCOC(=O)C[C@@H]1N=C(c2ccc(-c3ccc(C(=O)NCc4ccc(S(=O)(=O)Nc5ccc(C)c6c(C#N)c[nH]c56)cc4)cc3)cc2)c2c(sc(C)c2C)-n2c(C)nnc21 [Example Compound 129, ethyl [(6S)-4-{4′-[({4-[(3-cyano-4-methyl-1H-indol-7-yl)sulfamoyl]phenyl}methyl)carbamoyl][1,1′-biphenyl]-4-yl}-2,3,9-trimethyl-6H-thieno[3,2-f][1,2,4]triazolo[4,3-a][1,4]diazepin-6-yl]acetate] | 0.048 nM
12 | 0.028 nM | CCCOC(=O)C[C@@H]1N=C(c2ccc(-c3ccc(C(=O)NCc4ccc(S(=O)(=O)Nc5ccc(C)c6c(C#N)c[nH]c56)cc4)cc3)cc2)c2c(sc(C)c2C)-n2c(C)nnc21 [Example Compound 130, n-propyl [(6S)-4-{4′-[({4-[(3-cyano-4-methyl-1H-indol-7-yl)sulfamoyl]phenyl}methyl)carbamoyl][1,1′-biphenyl]-4-yl}-2,3,9-trimethyl-6H-thieno[3,2-f][1,2,4]triazolo[4,3-a][1,4]diazepin-6-yl]acetate] | 0.05 nM
13 | 0.035 nM | Cc1sc2c(c1C)C(c1ccc(-c3ccc(C(=O)NCc4ccc(S(=O)(=O)Nc5ccc(C)c6c(C#N)c[nH]c56)cc4)cc3)cc1)=N[C@@H](CC(=O)OC(C)C)c1nnc(C)n1-2 [Example Compound 131, isopropyl [(6S)-4-{4′-[({4-[(3-cyano-4-methyl-1H-indol-7-yl)sulfamoyl]phenyl}methyl)carbamoyl][1,1′-biphenyl]-4-yl}-2,3,9-trimethyl-6H-thieno[3,2-f][1,2,4]triazolo[4,3-a][1,4]diazepin-6-yl]acetate] | 0.065 nM
14 | 0.38 nM | CCc1ccc(NS(=O)(=O)c2ccc(CNC(=O)c3ccc(-c4ccc(C5=N[C@@H](CC(=O)OC(C)(C)C)c6nnc(C)n6-c6sc(C)c(C)c65)cc4)cc3)cc2)c2[nH]cc(C#N)c12 [Example Compound 135, t-butyl [(6S)-4-{4′-[({4-[(3-cyano-4-ethyl-1H-indol-7-yl)sulfamoyl]phenyl}methyl)carbamoyl][1,1′-biphenyl]-4-yl}-2,3,9-trimethyl-6H-thieno[3,2-f][1,2,4]triazolo[4,3-a][1,4]diazepin-6-yl]acetate] | 0.66 nM
15 | 0.25 nM | CCc1ccc(NS(=O)(=O)c2ccc([C@@H](C)NC(=O)c3ccc(-c4ccc(C5=N[C@@H](CC(=O)OC(C)(C)C)c6nnc(C)n6-c6sc(C)c(C)c65)cc4)cc3)cc2)c2[nH]cc(C#N)c12 [Example Compound 136, t-butyl [(6S)-4-(4′-{[(1R)-1-{4-[(3-cyano-4-ethyl-1H-indol-7-yl)sulfamoyl]phenyl}ethyl]carbamoyl}[1,1′-biphenyl]-4-yl)-2,3,9-trimethyl-6H-thieno[3,2-f][1,2,4]triazolo[4,3-a][1,4]diazepin-6-yl]acetate] | 0.6 nM
16 | 0.13 nM | CCc1ccc(NS(=O)(=O)c2ccc(CCNC(=O)c3ccc(-c4ccc(C5=N[C@@H](CC(=O)OC(C)(C)C)c6nnc(C)n6-c6sc(C)c(C)c65)cc4)cc3)cc2)c2[nH]cc(C#N)c12 [Example Compound 137, t-butyl [(6S)-4-{4′-[(2-{4-[(3-cyano-4-ethyl-1H-indol-7-yl)sulfamoyl]phenyl}ethyl)carbamoyl][1,1′-biphenyl]-4-yl}-2,3,9-trimethyl-6H-thieno[3,2-f][1,2,4]triazolo[4,3-a][1,4]diazepin-6-yl]acetate] | 0.48 nM
17 | 0.38 nM | Cc1sc2c(c1C)C(c1ccc(-c3ccc(C(=O)NCc4ccc(S(=O)(=O)Nc5ccc(C)c6c(C#N)c[nH]c56)cc4)c(Cl)c3)cc1)=N[C@@H](CC(=O)OC(C)(C)C)c1nnc(C)n1-2 [Example Compound 140, t-butyl [(6S)-4-{3′-chloro-4′-[({4-[(3-cyano-4-methyl-1H-indol-7-yl)sulfamoyl]phenyl}methyl)carbamoyl][1,1′-biphenyl]-4-yl}-2,3,9-trimethyl-6H-thieno[3,2-f][1,2,4]triazolo[4,3-a][1,4]diazepin-6-yl]acetate] | 0.52 nM
